Measured values published in PMC9743148 (Annals of oncology : official journal of the European …, 2020).

System: patients with advanced solid tumors
Experiment: Treatment-emergent adverse events
Assay type: in vivo, human
[1] = Combined t.i.w. cohorts (n = 42)

SMILES: C=CC(=O)N1CC[C@H](n2nc(C#Cc3cc(OC)cc(OC)c3)c3c(N)ncnc32)C1 [futibatinib]
- Dry mouth TEAE, Grade 3 (Combined q.d. cohorts (n = 44)): 0 (0) n (%)
- Dry mouth TEAE, Grade 4 (Combined q.d. cohorts (n = 44)): 0 (0) n (%)
- Dry skin TEAE, Any grade (Combined q.d. cohorts (n = 44)): 6 (14) n (%)
- Dry skin TEAE, Grade 1 (Combined q.d. cohorts (n = 44)): 6 (14) n (%)
- Dry skin TEAE, Grade 2 (Combined q.d. cohorts (n = 44)): 0 (0) n (%)
- Dry skin TEAE, Grade 3 (Combined q.d. cohorts (n = 44)): 0 (0) n (%)
- Dry skin TEAE, Grade 4 (Combined q.d. cohorts (n = 44)): 0 (0) n (%)
- Fatigue TEAE, Any grade (Combined q.d. cohorts (n = 44)): 7 (16) n (%)
- Fatigue TEAE, Grade 1 (Combined q.d. cohorts (n = 44)): 3 (7) n (%)
- Fatigue TEAE, Grade 2 (Combined q.d. cohorts (n = 44)): 3 (7) n (%)
- Fatigue TEAE, Grade 3 (Combined q.d. cohorts (n = 44)): 1 (2) n (%)
- Fatigue TEAE, Grade 4 (Combined q.d. cohorts (n = 44)): 0 (0) n (%)
- Headache TEAE, Any grade (Combined q.d. cohorts (n = 44)): 2 (5) n (%)
- Headache TEAE, Grade 1 (Combined q.d. cohorts (n = 44)): 0 (0) n (%)
- Headache TEAE, Grade 2 (Combined q.d. cohorts (n = 44)): 1 (2) n (%)
- Headache TEAE, Grade 3 (Combined q.d. cohorts (n = 44)): 1 (2) n (%)
- Headache TEAE, Grade 4 (Combined q.d. cohorts (n = 44)): 0 (0) n (%)
- Hypercalcemia TEAE, Any grade (Combined q.d. cohorts (n = 44)): 0 (0) n (%)
- Hypercalcemia TEAE, Grade 1 (Combined q.d. cohorts (n = 44)): 0 (0) n (%)
- Hypercalcemia TEAE, Grade 2 (Combined q.d. cohorts (n = 44)): 0 (0) n (%)
- Hypercalcemia TEAE, Grade 3 (Combined q.d. cohorts (n = 44)): 0 (0) n (%)
- Hypercalcemia TEAE, Grade 4 (Combined q.d. cohorts (n = 44)): 0 (0) n (%)
- Hyperphosphatemia TEAE, Any grade (Combined q.d. cohorts (n = 44)): 30 (68) n (%)
- Hyperphosphatemia TEAE, Grade 1 (Combined q.d. cohorts (n = 44)): 13 (30) n (%)
- Hyperphosphatemia TEAE, Grade 2 (Combined q.d. cohorts (n = 44)): 10 (23) n (%)
- Hyperphosphatemia TEAE, Grade 4 (Combined q.d. cohorts (n = 44)): 0 (0) n (%)
- Hyperphosphatemia TEAE, grade 3 (Combined q.d. cohorts (n = 44)): 7 (16) n (%)
- Hypomagnesemia TEAE, Any grade (Combined q.d. cohorts (n = 44)): 3 (7) n (%)
- Hypomagnesemia TEAE, Grade 1 (Combined q.d. cohorts (n = 44)): 3 (7) n (%)
- Hypomagnesemia TEAE, Grade 2 (Combined q.d. cohorts (n = 44)): 0 (0) n (%)
- Hypomagnesemia TEAE, Grade 3 (Combined q.d. cohorts (n = 44)): 0 (0) n (%)
- Hypomagnesemia TEAE, Grade 4 (Combined q.d. cohorts (n = 44)): 0 (0) n (%)
- Hyponatremia TEAE, Any grade (Combined q.d. cohorts (n = 44)): 2 (5) n (%)
- Hyponatremia TEAE, Grade 1 (Combined q.d. cohorts (n = 44)): 0 (0) n (%)
- Hyponatremia TEAE, Grade 2 (Combined q.d. cohorts (n = 44)): 0 (0) n (%)
- Hyponatremia TEAE, Grade 3 (Combined q.d. cohorts (n = 44)): 2 (5) n (%)
- Hyponatremia TEAE, Grade 4 (Combined q.d. cohorts (n = 44)): 0 (0) n (%)
- Nausea TEAE, Any grade (Combined q.d. cohorts (n = 44)): 13 (30) n (%)
- Nausea TEAE, Grade 1 (Combined q.d. cohorts (n = 44)): 8 (18) n (%)
- Nausea TEAE, Grade 2 (Combined q.d. cohorts (n = 44)): 3 (7) n (%)
- Nausea TEAE, Grade 3 (Combined q.d. cohorts (n = 44)): 2 (5) n (%)
- Nausea TEAE, Grade 4 (Combined q.d. cohorts (n = 44)): 0 (0) n (%)
- Onycholysis TEAE, Any grade (Combined q.d. cohorts (n = 44)): 1 (2) n (%)
- Onycholysis TEAE, Grade 1 (Combined q.d. cohorts (n = 44)): 1 (2) n (%)
- Onycholysis TEAE, Grade 2 (Combined q.d. cohorts (n = 44)): 0 (0) n (%)
- Onycholysis TEAE, Grade 3 (Combined q.d. cohorts (n = 44)): 0 (0) n (%)
- Onycholysis TEAE, Grade 4 (Combined q.d. cohorts (n = 44)): 0 (0) n (%)
- Pyrexia TEAE, Any grade (Combined q.d. cohorts (n = 44)): 5 (11) n (%)
- Pyrexia TEAE, Grade 1 (Combined q.d. cohorts (n = 44)): 3 (7) n (%)
- Pyrexia TEAE, Grade 2 (Combined q.d. cohorts (n = 44)): 1 (2) n (%)
- Pyrexia TEAE, Grade 3 (Combined q.d. cohorts (n = 44)): 1 (2) n (%)
- Pyrexia TEAE, Grade 4 (Combined q.d. cohorts (n = 44)): 0 (0) n (%)
- Rash TEAE, Any grade (Combined q.d. cohorts (n = 44)): 1 (2) n (%)
- Rash TEAE, Grade 1 (Combined q.d. cohorts (n = 44)): 1 (2) n (%)
- Rash TEAE, Grade 2 (Combined q.d. cohorts (n = 44)): 0 (0) n (%)
- Rash TEAE, Grade 3 (Combined q.d. cohorts (n = 44)): 0 (0) n (%)
- Rash TEAE, Grade 4 (Combined q.d. cohorts (n = 44)): 0 (0) n (%)
- Stomatitis TEAE, Any grade (Combined q.d. cohorts (n = 44)): 9 (20) n (%)
- Stomatitis TEAE, Grade 1 (Combined q.d. cohorts (n = 44)): 6 (14) n (%)
- Stomatitis TEAE, Grade 2 (Combined q.d. cohorts (n = 44)): 2 (5) n (%)
- Stomatitis TEAE, Grade 3 (Combined q.d. cohorts (n = 44)): 1 (2) n (%)
- Stomatitis TEAE, Grade 4 (Combined q.d. cohorts (n = 44)): 0 (0) n (%)
- Treatment discontinuation because of TEAE, Any grade (Combined q.d. cohorts (n = 44)): 2 (5) n (%)
- Treatment discontinuation because of TEAE, Grade 1 (Combined q.d. cohorts (n = 44)): 0 (0) n (%)
- Treatment discontinuation because of TEAE, Grade 2 (Combined q.d. cohorts (n = 44)): 1 (2) n (%)
- Treatment discontinuation because of TEAE, Grade 3 (Combined q.d. cohorts (n = 44)): 1 (2) n (%)
- Treatment discontinuation because of TEAE, Grade 4 (Combined q.d. cohorts (n = 44)): 0 (0) n (%)
- Urinary tract infection TEAE, Any grade (Combined q.d. cohorts (n = 44)): 0 (0) n (%)
- Urinary tract infection TEAE, Grade 1 (Combined q.d. cohorts (n = 44)): 0 (0) n (%)
- Urinary tract infection TEAE, Grade 2 (Combined q.d. cohorts (n = 44)): 0 (0) n (%)
- Urinary tract infection TEAE, Grade 3 (Combined q.d. cohorts (n = 44)): 0 (0) n (%)
- Urinary tract infection TEAE, Grade 4 (Combined q.d. cohorts (n = 44)): 0 (0) n (%)
- Vomiting TEAE, Any grade (Combined q.d. cohorts (n = 44)): 11 (25) n (%)
- Vomiting TEAE, Grade 1 (Combined q.d. cohorts (n = 44)): 6 (14) n (%)
- Vomiting TEAE, Grade 2 (Combined q.d. cohorts (n = 44)): 3 (7) n (%)
- Vomiting TEAE, Grade 3 (Combined q.d. cohorts (n = 44)): 2 (5) n (%)
- Vomiting TEAE, Grade 4 (Combined q.d. cohorts (n = 44)): 0 (0) n (%)
- ALT increased TEAE, Any grade [1]: 5 (12) n (%)
- ALT increased TEAE, Grade 1 [1]: 3 (7) n (%)
- ALT increased TEAE, Grade 2 [1]: 1 (2) n (%)
- ALT increased TEAE, Grade 3 [1]: 1 (2) n (%)
- ALT increased TEAE, Grade 4 [1]: 0 (0) n (%)
- AST increased TEAE, Any grade [1]: 4 (10) n (%)
